# How the values were obtained:
# Assay type in all cases: in vivo
# [1] = test system: pigweed (Amaranthus retroflexus); experiment: Test B postemergence
# Method in brief: (§1)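 Greenhouse test: chemicals are formulated in a surfactant-containing non-phytotoxic solvent and applied either preemergence to planted seeds or postemergence to plants 2 to 18 cm tall. Response is rated visually versus controls after 13 to 15 days, 0 meaning no effect and 100 complete control.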
# corn (Zea mays) [2] = experiment: Test B postemergence
# Method in brief: as §1
# [3] = test system: cocklebur (Xanthium strumarium); experiment: Test B postemergence
# Method in brief: as §1
# [4] = test system: giant foxtail (Setaria faberii); experiment: Test B postemergence
# Method in brief: as §1
# [5] = test system: Surinam grass (Brachiaria decumbens); experiment: Test B postemergence
# Method in brief: as §1
# [6] = test system: barnyardgrass (Echinochloa crus-galli); experiment: Test B postemergence
# Method in brief: as §1
# [7] = test system: crabgrass (Digitaria sanguinalis); experiment: Test B postemergence
# Method in brief: as §1
# [8] = test system: blackgrass (Alopecurus myosuroides); experiment: Test B postemergence
# Method in brief: as §1
# [9] = test system: morning glory (Ipomoea hederacea); experiment: Test B postemergence
# Method in brief: as §1
# [10] = test system: lambsquarters (Chenopodium album); experiment: Test B postemergence
# Method in brief: as §1
# [11] = test system: wheat (Triticum aestivum); experiment: Test B postemergence
# Method in brief: as §1
# wild oat (Avena fatua) = experiment: Test B postemergence
# Method in brief: as §1
# [12] = test system: velvetleaf (Abutilon theophrasti); experiment: Test B postemergence
# Method in brief: as §1
# kochia (Kochia scoparia) = experiment: Test C preemergence; details: for Plant response rating (0 to 100), Kochia: Rate 500 g/ha, visual evaluation after 12 to 14 days
# Method in brief: (§2)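 Formulation: non-phytotoxic solvent mix incl. surfactant. Pre: applied right after planting. Post: 1–4-leaf seedlings. Read: visual 0–100, day 12–14, greenhouse.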
# corn (Zea mays) [13] = experiment: Test C preemergence; details: for Plant response rating (0 to 100), Corn: Rate 500 g/ha, visual evaluation after 12 to 14 days
# Method in brief: as §2
# [14] = test system: giant foxtail (Setaria faberii); experiment: Test C preemergence; details: for Plant response rating (0 to 100), Foxtail, Giant: Rate 500 g/ha, visual evaluation after 12 to 14 days
# Method in brief: as §2
# [15] = test system: morningglory (Ipomoea hederacea); experiment: Test C preemergence; details: for Plant response rating (0 to 100), Morningglory: Rate 500 g/ha, visual evaluation after 12 to 14 days
# Method in brief: as §2
# [16] = test system: johnsongrass (Sorghum halepense); experiment: Test C preemergence; details: for Plant response rating (0 to 100), Johnsongrass: Rate 500 g/ha, visual evaluation after 12 to 14 days
# Method in brief: as §2
# [17] = test system: yellow nutsedge (Cyperus esculentus); experiment: Test C preemergence; details: for Plant response rating (0 to 100), Nutsedge: Rate 500 g/ha, visual evaluation after 12 to 14 days
# Method in brief: as §2
# [18] = test system: velvetleaf (Abutilon theophrasti); experiment: Test C preemergence; details: for Plant response rating (0 to 100), Velvetleaf: Rate 500 g/ha, visual evaluation after 12 to 14 days
# Method in brief: as §2
# [19] = test system: bermudagrass (Cynodon dactylon); experiment: Test C preemergence; details: for Plant response rating (0 to 100 where 0 is no effect and 100 is complete control), Bermudagrass: Rate 500 g/ha, visual evaluation after 12 to 14 days
# Method in brief: as §2
# Sunflower [20] = experiment: Test C preemergence; details: Rate 125 g/ha; scale 0 to 100, 0 no effect, 100 complete control
# Sunflower [21] = experiment: Test C preemergence; details: Rate 500 g/ha, visual evaluation after 12 to 14 days
# [22] = Rate 125 g/ha, scale 0 to 100, 0 no effect, 100 complete control
# [23] = Rate 500 g/ha, scale 0 to 100, 0 is no effect, 100 is complete control, 13 to 15 days
# [24] = preemergence, Rate 62 g/ha, scale 0 to 100
# [25] = preemergence, Rate 250 g/ha, scale 0 to 100, 0 no effect, 100 complete control
# [26] = Rate 125 g/ha, scale 0 (no effect) to 100 (complete control), 13 to 15 days
structure (smiles),measurement,setting,value
CC(C)c1cccc(N2CCC(n3ccc(C(C)(C)C)n3)C2=O)c1 (stereo not drawn) [Compound 111],"Plant response rating, Pigweed",[1]; [22],0
same,"Plant response rating, Pigweed",[1]; [23],0
same,"Plant response rating, Corn",corn (Zea mays) [2]; [22],0
same,"Plant response rating, Corn",corn (Zea mays) [2]; [23],0
same,"Plant response rating, Cocklebur",[3]; [22],0
same,"Plant response rating, Cocklebur",[3]; [23],0
same,"Plant response rating, Foxtail, Giant",[4]; [22],0
same,"Plant response rating, Foxtail, Giant",[4]; [23],0
same,"Plant response rating, Surinam grass",[5]; [22],0
same,"Plant response rating, Surinam grass",[5]; [23],40
same,"Plant response rating, Barnyardgrass",[6]; [22],0
same,"Plant response rating, Barnyardgrass",[6]; [23],0
same,"Plant response rating, Crabgrass",[7]; [22],0
same,"Plant response rating, Crabgrass",[7]; [23],30
same,"Plant response rating, Blackgrass",[8]; [22],0
same,"Plant response rating, Blackgrass",[8]; [23],20
same,"Plant response rating, Morningglory",[9]; [22],0
same,"Plant response rating, Morningglory",[9]; [23],0
same,"Plant response rating, Lambsquarters",[10]; [22],0
same,"Plant response rating, Lambsquarters",[10]; [23],20
same,"Plant response rating, Wheat",[11]; [22],20
same,"Plant response rating, Wheat",[11]; [23],20
same,"Plant response rating, Wild Oat",wild oat (Avena fatua); [22],0
same,"Plant response rating, Wild Oat",wild oat (Avena fatua); [23],60
same,"Plant response rating, Velvetleaf",[12]; [22],0
same,"Plant response rating, Velvetleaf",[12]; [23],0
same,"Plant response rating, Kochia",kochia (Kochia scoparia); [22],0
same,"Plant response rating, Kochia",kochia (Kochia scoparia); [24],0
same,"Plant response rating (0 to 100), Kochia",kochia (Kochia scoparia); preemergence,0
same,"Plant response rating, Kochia",kochia (Kochia scoparia); [25],0
same,"Plant response rating, Corn",corn (Zea mays) [13]; [22],0
same,"Plant response rating, Corn",corn (Zea mays) [13]; [24],0
same,"Plant response rating (0 to 100), Corn",corn (Zea mays) [13]; preemergence,0
same,"Plant response rating, Corn",corn (Zea mays) [13]; [25],0
same,"Plant response rating, Foxtail, Giant",[14]; [22],0
same,"Plant response rating, Foxtail, Giant",[14]; [24],0
same,"Plant response rating (0 to 100), Foxtail, Giant",[14]; preemergence,80
same,"Plant response rating, Foxtail, Giant",[14]; [25],30
same,"Plant response rating, Morningglory",[15]; [22],0
same,"Plant response rating, Morningglory",[15]; [24],0
same,"Plant response rating (0 to 100), Morningglory",[15]; preemergence,0
same,"Plant response rating, Morningglory",[15]; [25],0
same,"Plant response rating, Johnsongrass",[16]; [22],0
same,"Plant response rating, Johnsongrass",[16]; [24],0
same,"Plant response rating (0 to 100), Johnsongrass",[16]; preemergence,25
same,"Plant response rating, Johnsongrass",[16]; [25],0
same,"Plant response rating, Nutsedge",[17]; [22],0
same,"Plant response rating, Nutsedge",[17]; [24],0
same,"Plant response rating (0 to 100), Nutsedge",[17]; preemergence,0
same,"Plant response rating, Nutsedge",[17]; [25],0
same,"Plant response rating, Velvetleaf",[18]; [22],0
same,"Plant response rating, Velvetleaf",[18]; [24],0
same,"Plant response rating (0 to 100), Velvetleaf",[18]; preemergence,0
same,"Plant response rating, Velvetleaf",[18]; [25],0
same,"Plant response rating, Bermudagrass",[19]; [22],90
same,"Plant response rating, Bermudagrass",[19]; [24],60
same,"Plant response rating (0 to 100 where 0 is no effect and 100 is complete control), Bermudagrass",[19]; preemergence,100
same,"Plant response rating, Bermudagrass",[19]; [25],100
same,"Plant response rating, Sunflower",Sunflower [20],0
same,"Plant response rating (0 to 100), Sunflower",Sunflower [21],0
CCC(CC)c1ccn(C2CCN(c3cccc(OC)c3)C2=O)n1 (stereo not drawn) [Compound 96],"Plant response rating, Pigweed",[1]; [23],90
same,"Plant response rating, Corn",corn (Zea mays) [2]; [26],0
same,"Plant response rating, Corn",corn (Zea mays) [2]; [23],0
same,"Plant response rating, Cocklebur",[3]; [26],10
same,"Plant response rating, Cocklebur",[3]; [23],20
same,"Plant response rating, Foxtail, Giant",[4]; [26],0
same,"Plant response rating, Foxtail, Giant",[4]; [23],40
same,"Plant response rating, Surinam grass",[5]; [26],0
same,"Plant response rating, Surinam grass",[5]; [23],0
same,"Plant response rating, Barnyardgrass",[6]; [26],0
same,"Plant response rating, Barnyardgrass",[6]; [23],90
same,"Plant response rating, Crabgrass",[7]; [26],20
same,"Plant response rating, Crabgrass",[7]; [23],70
same,"Plant response rating, Blackgrass",[8]; [26],0
same,"Plant response rating, Blackgrass",[8]; [23],0
same,"Plant response rating, Morningglory",[9]; [23],50
same,"Plant response rating, Lambsquarters",[10]; [23],90
same,"Plant response rating, Wheat",[11]; [23],0
same,"Plant response rating, Wild Oat",wild oat (Avena fatua); [23],0
same,"Plant response rating, Velvetleaf",[12]; [23],10
same,"Plant response rating, Kochia",kochia (Kochia scoparia); [22],100
same,"Plant response rating, Kochia",kochia (Kochia scoparia); [24],100
same,"Plant response rating (0 to 100), Kochia",kochia (Kochia scoparia); preemergence,100
same,"Plant response rating, Kochia",kochia (Kochia scoparia); [25],100
same,"Plant response rating, Corn",corn (Zea mays) [13]; [22],20
same,"Plant response rating, Corn",corn (Zea mays) [13]; [24],0
same,"Plant response rating (0 to 100), Corn",corn (Zea mays) [13]; preemergence,50
same,"Plant response rating, Corn",corn (Zea mays) [13]; [25],40
same,"Plant response rating, Foxtail, Giant",[14]; [22],0
same,"Plant response rating, Foxtail, Giant",[14]; [24],100
same,"Plant response rating (0 to 100), Foxtail, Giant",[14]; preemergence,100
same,"Plant response rating, Foxtail, Giant",[14]; [25],0
same,"Plant response rating, Morningglory",[15]; [22],0
same,"Plant response rating, Morningglory",[15]; [24],0
same,"Plant response rating (0 to 100), Morningglory",[15]; preemergence,20
same,"Plant response rating, Morningglory",[15]; [25],20
same,"Plant response rating, Johnsongrass",[16]; [22],30
same,"Plant response rating, Johnsongrass",[16]; [24],20
same,"Plant response rating (0 to 100), Johnsongrass",[16]; preemergence,70
same,"Plant response rating, Johnsongrass",[16]; [25],50
same,"Plant response rating, Nutsedge",[17]; [22],0
same,"Plant response rating, Nutsedge",[17]; [24],0
same,"Plant response rating (0 to 100), Nutsedge",[17]; preemergence,70
same,"Plant response rating, Nutsedge",[17]; [25],10
same,"Plant response rating, Velvetleaf",[18]; [22],0
same,"Plant response rating, Velvetleaf",[18]; [24],0
same,"Plant response rating (0 to 100), Velvetleaf",[18]; preemergence,40
same,"Plant response rating, Velvetleaf",[18]; [25],30
same,"Plant response rating, Bermudagrass",[19]; [22],100
same,"Plant response rating, Bermudagrass",[19]; [24],100
same,"Plant response rating (0 to 100 where 0 is no effect and 100 is complete control), Bermudagrass",[19]; preemergence,100
same,"Plant response rating, Bermudagrass",[19]; [25],100
same,"Plant response rating, Sunflower",Sunflower [20],0
same,"Plant response rating (0 to 100), Sunflower",Sunflower [21],50
